Patent US20220000811A1, “COMPOSITION FOR PROMOTING HAIR GROWTH COMPRISING A GUANINE DERIVATIVE” (KOREA RESEARCH INSTITUTE OF BIOSCIENCE AND BIOTECHNOLOGY, priority 2019, published 2022)

Key:
[1] = test system: mouse embryonic fibroblasts (MEFs); test: Reprogramming into iPSCs (OSKM) in mouse embryonic fibroblasts, AP staining; format: cell-based; settings: MEFs; for enhancing reprogramming efficiency: 14 days
Procedure: During reprogramming into iPSCs by introducing OSKM reprogramming factor into mouse embryonic fibroblasts (MEFs), rotenone, the guanidine derivatives of the present invention, and phenformin were treated at the indicated concentrations. After 14 days, alkaline phosphatase (AP) staining was performed (FIG. 2A), and the number of AP^+ colonies was quantified (FIG. 2b). […] In the subsequent experiment, additional efficacy was evaluated using only the three compounds showing the effective reprogramming-enhancing effect.

[2] = test system: human foreskin fibroblast (HFFs); test: Reprogramming into iPSCs (OSKM) in human foreskin fibroblasts, AP staining; format: cell-based
Procedure: After 28 days, AP staining was performed (FIG. 3a), and the number of AP^+ colonies was quantified (FIG. 3b).

hair follicles = test: Quantitative histomorphometric analysis of hair follicle cycle and number (H&E); format: in vivo, mouse
Procedure: During the hair telogen phase, the hair on the dorsal skin of 7-week-old C57BL/6 mice (Dae Han BioLink, Chungbuk, Republic of Korea) was depilated using an animal clipper and wax (Veet, Oxy Reckitt Benckiser, Seoul, Republic of Korea). From the next day, 200 μL of placebo (control), 1% IM, 1% minoxidil, or 1% metformin was applied daily to the depilated area using a sterile cotton swab. Images of each animal were captured daily, and the degree of darkness of the color on dorsal skin was quantified in the same area (1.6 cm×3 cm) using the Image J program. The mice were sacrificed, and skin tissues on days 0, 7, 14, and 20 were obtained. Half of the tissues were used for RNA isolation, and the other half were fixed with 4% paraformaldehyde overnight for histochemical analysis. The tissues fixed in Example 1.1. were immersed in 30% sucrose, and then embedded in an OCT compound (Sakura Finetek USA Inc, Torrance, Calif., USA). Frozen fragments were obtained using a cryostat sectioning device (Leica, Wetzlar, Germany) and stained using hematoxylin (Sigma) and eosin (Sigma) (H&E), or each of the antibodies shown in Table 1 below. Immunohistochemical analysis was performed, and fluorescence images were taken with an Olympus microscope (Olympus) According to the guidelines for accurately classifying the hair cycle stages, the hair cycle was quantified by classifying individual hair follicles with H&E staining micrographs in the longitudinal section of each mouse (n>10). The percentage of the anagen phase of the hair was calculated for each group. Hair follicles in the same area (1300 μm width) were counted by H&E staining micrographs in the cross section of each mouse (n>10).

C57BL/6 mice = test: Side effects observed during hair regeneration experiment; format: in vivo, mouse; settings: topical treatment during the experiment
Procedure: During the hair telogen phase, the hair on the dorsal skin of 7-week-old C57BL/6 mice (Dae Han BioLink, Chungbuk, Republic of Korea) was depilated using an animal clipper and wax (Veet, Oxy Reckitt Benckiser, Seoul, Republic of Korea). From the next day, 200 μL of placebo (control), 1% IM, 1% minoxidil, or 1% metformin was applied daily to the depilated area using a sterile cotton swab. Images of each animal were captured daily, and the degree of darkness of the color on dorsal skin was quantified in the same area (1.6 cm×3 cm) using the Image J program. The mice were sacrificed, and skin tissues on days 0, 7, 14, and 20 were obtained. Half of the tissues were used for RNA isolation, and the other half were fixed with 4% paraformaldehyde overnight for histochemical analysis.

## Cc1ccccc1CCNC(=N)NC(=N)N [IM176OUT05, N-1-(2-methyl)phenethylbiguanide]
[1]; 10 nM
  enhancing reprogramming efficiency: 16.8 times
[1]; 20 nM
  enhancing reprogramming efficiency: 13.9 times
[1]; 50 nM
  enhancing reprogramming efficiency: 13.7 times
[1]; OSKM, after 14 days, indicated concentrations
  effect on reprogramming, number of AP+ colonies: increased
[2]; 10 nM, 100 nM, and 500 nM, 28 days
  enhancing reprogramming efficiency: ≥ 2.4 times
[2]; OSKM, after 28 days
  concentration with the most excellent reprogramming efficacy: 10 nM
Hair follicles; day 7, cross section
  number of hair follicles compared to control: significantly increased
Hair follicles; day 20
  number of hair follicles compared to control: significantly higher
Hair follicles; day 20, longitudinal section
  stage of most hair follicles: growth phases V and VI
Hair follicles; histomorphometry
  progression of the hair follicle cycle: stimulated the progression of the hair follicle cycle
C57BL/6 mice
  side effects, including skin problems: No side effects
